According to patent US12077503B2, “Substituted cyclic amides and their use as herbicides” (FMC CORPORATION, priority 2015, dated 2024):

Legend:
Type in all cases: in vivo
[1] = tested on: sedge, umbrella (small-flower umbrella sedge, Cyperus difformis); assay: Test B flooded paddy test; settings: Cyperus difformis, 250 g ai/ha, Flood; 0 to 100 scale where 0 is no effect and 100 is complete control; read-out: Sedge, Umbrella plant response rating
Outline: (§1)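 Percent control, visually estimated after 13–15 d in the greenhouse on a 0–100 basis, compares treated pots with untreated ones; compound was put into paddy water 3 cm above the soil when plants had two leaves.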

[2] = tested on: rice (Oryra sativa); assay: Test B flooded paddy test; settings: Oryza sativa, 250 g ai/ha, Flood; 0 to 100 scale where 0 is no effect and 100 is complete control; read-out: Rice plant response rating
Outline: as §1

[3] = tested on: barnyardgrass (Echinochloa crus-galli); assay: Test B flooded paddy test; settings: Echinochloa crus-galli, 250 g ai/ha, Flood; 0 to 100 scale where 0 is no effect and 100 is complete control; read-out: Barnyardgrass plant response rating
Outline: as §1

[4] = tested on: ducksalad (Heteranthera limosa); assay: Test B flooded paddy test; settings: Heteranthera limosa, 250 g ai/ha, Flood; 0 to 100 scale where 0 is no effect and 100 is complete control; read-out: Ducksalad plant response rating
Outline: as §1

[5] = tested on: pigweed (Amaranthus retroflexus); assay: Test A preemergence; settings: Amaranthus retroflexus, pre-emergence, 240 h, 0 to 100 scale where 0 is no effect and 100 is complete control, read-out: Pigweed plant response rating; for pest or weed control at 31 g/ha: 31 g ai/ha, Preemergence; for pest or weed control at 125 g/ha: 125 g ai/ha, preemergence, approx. 10 d
[6] = tested on: ragweed (common ragweed, Ambrosia elatior); assay: Test A preemergence; settings: Ambrosia artemisiifolia, pre-emergence, 240 h, 0 to 100 scale where 0 is no effect and 100 is complete control, read-out: Ragweed plant response rating; for pest or weed control at 31 g/ha: 31 g ai/ha, Preemergence; for pest or weed control at 125 g/ha: 125 g ai/ha, preemergence, approx. 10 d
Outline: (§2)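 Treatment is preemergence as a directed soil spray after planting, or postemergence at the one- to two-leaf stage, with test chemical in a non-phytotoxic solvent mixture plus surfactant. Plants stay in the greenhouse about 10 d before visual injury scoring on a 0 to 100 scale versus untreated controls.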

[7] = tested on: giant foxtail (Setaria faberii); assay: Test A preemergence; settings: Setaria faberi, pre-emergence, 240 h, 0 to 100 scale where 0 is no effect and 100 is complete control, read-out: Foxtail, Giant plant response rating; for pest or weed control at 31 g/ha: 31 g ai/ha, Preemergence; for pest or weed control at 125 g/ha: 125 g ai/ha, preemergence, approx. 10 d
Outline: as §2

[8] = tested on: barnyardgrass (Echinochloa crus-galli); assay: Test A preemergence; settings: Echinochloa crus-galli, pre-emergence, 240 h, 0 to 100 scale where 0 is no effect and 100 is complete control, read-out: Barnyardgrass plant response rating; for pest or weed control at 31 g/ha: 31 g ai/ha, Preemergence; for pest or weed control at 125 g/ha: 125 g ai/ha, preemergence, approx. 10 d
Outline: as §2

[9] = tested on: ryegrass, Italian (Italian ryegrass, Lolium multiflorum); assay: Test A preemergence; settings: Lolium multiflorum, pre-emergence, 240 h, 0 to 100 scale where 0 is no effect and 100 is complete control, read-out: Ryegrass, Italian plant response rating; for pest or weed control at 31 g/ha: 31 g ai/ha, Preemergence; for pest or weed control at 125 g/ha: 125 g ai/ha, preemergence, approx. 10 d
Outline: as §2

[10] = tested on: Kochia (Kochia scoparia); assay: Test A preemergence; settings: Bassia scoparia, pre-emergence, 240 h, 0 to 100 scale where 0 is no effect and 100 is complete control, read-out: Kochia plant response rating; for pest or weed control at 31 g/ha: 31 g ai/ha, Preemergence; for pest or weed control at 125 g/ha: 125 g ai/ha, preemergence, approx. 10 d
Outline: as §2

[11] = tested on: pigweed (Amaranthus retroflexus); assay: Test A postemergence; settings: Amaranthus retroflexus, post-emergence, 240 h; for pest or weed control at 125 g/ha: 125 g ai/ha, postemergence, visual injury on 0 to 100 scale (0 no effect, 100 complete control), approx. 10 d, read-out: Pigweed plant response rating; for pest or weed control at 31 g/ha: Postemergence, 31 g ai/ha, visual injury after approx. 10 d, 0 to 100 scale, 0 no effect, 100 complete control, read-out: Plant response rating, Pigweed
Outline: as §2

[12] = tested on: ragweed (common ragweed, Ambrosia elatior); assay: Test A postemergence; settings: Ambrosia artemisiifolia, post-emergence, 240 h; for pest or weed control at 125 g/ha: 125 g ai/ha, postemergence, visual injury on 0 to 100 scale (0 no effect, 100 complete control), approx. 10 d, read-out: Ragweed plant response rating; for pest or weed control at 31 g/ha: Postemergence, 31 g ai/ha, visual injury after approx. 10 d, 0 to 100 scale, 0 no effect, 100 complete control, read-out: Plant response rating, Ragweed
Outline: as §2

[13] = tested on: giant foxtail (Setaria faberii); assay: Test A postemergence; settings: Setaria faberi, post-emergence, 240 h; for pest or weed control at 125 g/ha: 125 g ai/ha, postemergence, visual injury on 0 to 100 scale (0 no effect, 100 complete control), approx. 10 d, read-out: Foxtail, Giant plant response rating; for pest or weed control at 31 g/ha: Postemergence, 31 g ai/ha, visual injury after approx. 10 d, 0 to 100 scale, 0 no effect, 100 complete control, read-out: Plant response rating, Foxtail, Giant
Outline: as §2

[14] = tested on: blackgrass (Alopecurus myosuroides); assay: Test A postemergence; settings: Alopecurus myosuroides, post-emergence, 240 h; for pest or weed control at 125 g/ha: 125 g ai/ha, postemergence, visual injury on 0 to 100 scale (0 no effect, 100 complete control), approx. 10 d, read-out: Blackgrass plant response rating; for pest or weed control at 31 g/ha: Postemergence, 31 g ai/ha, visual injury after approx. 10 d, 0 to 100 scale, 0 no effect, 100 complete control, read-out: Plant response rating, Blackgrass
Outline: as §2

[15] = tested on: wheat (Triticum aestivum); assay: Test A postemergence; settings: Triticum aestivum, post-emergence, 240 h; for plant injury at 125 g/ha: 125 g ai/ha, postemergence, visual injury on 0 to 100 scale (0 no effect, 100 complete control), approx. 10 d, read-out: Wheat plant response rating; for plant injury at 31 g/ha: Postemergence, 31 g ai/ha, visual injury after approx. 10 d, 0 to 100 scale, 0 no effect, 100 complete control, read-out: Plant response rating, Wheat
Outline: as §2

[16] = tested on: barnyardgrass (Echinochloa crus-galli); assay: Test A postemergence; settings: Echinochloa crus-galli, post-emergence, 240 h; for pest or weed control at 125 g/ha: 125 g ai/ha, postemergence, visual injury on 0 to 100 scale (0 no effect, 100 complete control), approx. 10 d, read-out: Barnyardgrass plant response rating; for pest or weed control at 31 g/ha: Postemergence, 31 g ai/ha, visual injury after approx. 10 d, 0 to 100 scale, 0 no effect, 100 complete control, read-out: Plant response rating, Barnyardgrass
Outline: as §2

[17] = tested on: corn (Zea mays); assay: Test A postemergence; settings: Zea mays, post-emergence, 240 h; for plant injury at 125 g/ha: 125 g ai/ha, postemergence, visual injury on 0 to 100 scale (0 no effect, 100 complete control), approx. 10 d, read-out: Corn plant response rating; for Corn plant response rating (crop injury, 0 = no effect, 100 = complete kill) at 31 g/ha: Postemergence, 31 g ai/ha, visual injury after approx. 10 d, 0 to 100 scale, 100 complete control
Outline: as §2

[18] = tested on: ryegrass, Italian (Italian ryegrass, Lolium multiflorum); assay: Test A postemergence; settings: Lolium multiflorum, post-emergence, 240 h; for pest or weed control at 125 g/ha: 125 g ai/ha, postemergence, visual injury on 0 to 100 scale (0 no effect, 100 complete control), approx. 10 d, read-out: Ryegrass, Italian plant response rating; for pest or weed control at 31 g/ha: Postemergence, 31 g ai/ha, visual injury after approx. 10 d, 0 to 100 scale, 0 no effect, 100 complete control, read-out: Plant response rating, Ryegrass, Italian
Outline: as §2

[19] = tested on: Kochia (Kochia scoparia); assay: Test A postemergence; settings: Bassia scoparia, post-emergence, 240 h; for pest or weed control at 125 g/ha: 125 g ai/ha, postemergence, visual injury on 0 to 100 scale (0 no effect, 100 complete control), approx. 10 d, read-out: Kochia plant response rating; for pest or weed control at 31 g/ha: Postemergence, 31 g ai/ha, visual injury after approx. 10 d, 0 to 100 scale, 0 no effect, 100 complete control, read-out: Plant response rating, Kochia
Outline: as §2

Row | Structure (SMILES) | pest or weed control at 250 g/ha [1] | pest or weed control at 250 g/ha [2] | pest or weed control at 250 g/ha [3] | pest or weed control at 250 g/ha [4] | pest or weed control at 31 g/ha [5] | pest or weed control at 125 g/ha [5] | pest or weed control at 31 g/ha [6] | pest or weed control at 125 g/ha [6] | pest or weed control at 31 g/ha [7] | pest or weed control at 125 g/ha [7] | pest or weed control at 31 g/ha [8] | pest or weed control at 125 g/ha [8] | pest or weed control at 31 g/ha [9] | pest or weed control at 125 g/ha [9] | pest or weed control at 31 g/ha [10] | pest or weed control at 125 g/ha [10] | pest or weed control at 125 g/ha [11] | pest or weed control at 31 g/ha [11] | pest or weed control at 125 g/ha [12] | pest or weed control at 31 g/ha [12] | also measured
1 | CN1C[C@H](c2cc(C(F)F)cs2)[C@@H](C(=O)Nc2cccc(F)c2C#N)C1=O [Compound 1092] | 0% | 0% | 60% | 85% | 0% | 0% | 0% | 40% | 90% | 100% | 40% | 90% | 0% | 0% | 70% | 0% | 20% | 0% | 50% | 0% | pest or weed control at 125 g/ha [13]: 90%; pest or weed control at 31 g/ha [13]: 30%; pest or weed control at 125 g/ha [14]: 20%; pest or weed control at 31 g/ha [14]: 0%; plant injury at 125 g/ha [15]: 0%; plant injury at 31 g/ha [15]: 0%; pest or weed control at 125 g/ha [16]: 90%; pest or weed control at 31 g/ha [16]: 50%; plant injury at 125 g/ha [17]: 0%; Corn plant response rating (crop injury, 0 = no effect, 100 = complete kill) at 31 g/ha [17]: 0%; pest or weed control at 125 g/ha [18]: 0%; pest or weed control at 31 g/ha [18]: 0%; pest or weed control at 125 g/ha [19]: 20%; pest or weed control at 31 g/ha [19]: 0%
2 | CN1C[C@H](c2cc(C(F)F)cs2)[C@@H](C(=O)Nc2cccc(C#N)c2F)C1=O [Compound 1093] | 0% | 0% | 60% | 80% | 0% | 80% | 0% | 20% | 100% | 100% | 40% | 90% | 0% | 0% | 0% | 50% | 20% | 0% | 30% | 0% | pest or weed control at 125 g/ha [13]: 90%; pest or weed control at 31 g/ha [13]: 30%; pest or weed control at 125 g/ha [14]: 0%; pest or weed control at 31 g/ha [14]: 0%; plant injury at 125 g/ha [15]: 0%; plant injury at 31 g/ha [15]: 0%; pest or weed control at 125 g/ha [16]: 80%; pest or weed control at 31 g/ha [16]: 40%; plant injury at 125 g/ha [17]: 0%; Corn plant response rating (crop injury, 0 = no effect, 100 = complete kill) at 31 g/ha [17]: 0%; pest or weed control at 125 g/ha [18]: 0%; pest or weed control at 31 g/ha [18]: 0%; pest or weed control at 125 g/ha [19]: 20%; pest or weed control at 31 g/ha [19]: 0%
